# Key:
# [1] = physchem
# [2] = test system: Fumonisin FB1; experiment: Production of fumonisin FB1 by Fusarium proliferatum (microtiter plate, HPLC-MS/MS); format: cell-based; details: 144 h, read-out: pI50 FB1
# [3] = test system: Fusarium proliferatum; experiment: microbe, parasite or virus in culture; format: cell-based; details: 144 h, read-out: pI50 Wachstum
# [4] = test system: Puccinia recondita; experiment: Puccinia test (wheat) / protective; format: in vivo
# [5] = test system: Alternaria solani; experiment: Alternaria test (tomato) / protective; format: in vivo
# [6] = test system: Fusarium nivale (var.majus); format: in vivo; details: 120 h, 1000 ppm
# Source text: […]-Dimethylacetamid Emulgator: 1 Gewichtsteil Alkylarylpolyglykolether Zur […] und Emulgator und verdünnt das Konzentrat mit Wasser auf die gewünschte Konzentration. Zur Prüfung auf protektive Wirksamkeit besprüht man junge Pflanzen mit der Wirkstoffzubereitung in der angegebenen Aufwandmenge. Nach Antrocknen des Spritzbelages werden die Pflanzen mit Sporen mit einer Sporensuspension von Fusarium nivale (var.majus) besprüht. Die Pflanzen werden in einer Gewächshauskammer unter […] Inkubationshaube bei 10°C und 100 % relativer Luftfeuchtigkeit gestellt. 5 Tage nach der Inokulation erfolgt die Auswertung. Dabei bedeutet 0 % ein Wirkungsgrad, der demjenigen der Kontrolle entspricht, während ein Wirkungsgrad von 100 % bedeutet, dass kein Befall beobachtet wird.
# [7] = test system: Venturia inaequalis; format: in vivo; details: 240 h, 100 ppm
# Source text: Lösungsmittel: 24,5 Gewichtsteile Aceton 24,5 Gewichtsteile Dimethylacetamid Emulgator : 1 Gewichtsteil Alkyl-Aryl-Polyglykolether Zur […] und Emulgator und verdünnt das Konzentrat mit Wasser auf die gewünschte Konzentration. Zur Prüfung auf protektive Wirksamkeit werden junge Pflanzen mit der Wirkstoffzubereitung in der angegebenen Aufwandmenge besprüht. Nach Antrocknen des Spritzbelages werden die Pflanzen mit einer wäßrigen Konidiensuspension des […] Venturia inaequalis inokuliert und verbleiben dann 1 Tag bei ca. 20°C und 100% relativer Luftfeuchtigkeit in einer Inkubations-kabine. Die Pflanzen werden dann im Gewächshaus bei ca. 21°C und einer relativen Luftfeuchtigkeit von ca. 90% aufgestellt. 10 Tage nach der Inokulation erfolgt die Auswertung. Dabei bedeutet 0% ein Wirkungsgrad, der demjenigen der Kontrolle entspricht, während ein Wirkungsgrad von 100% bedeutet, daß kein Befall beobachtet wird.
# [8] = test system: Gibberella zeae; details: in vivo
# [9] = test system: Pyricularia oryzae; format: in vivo; details: 250ppm active compound; rice, protective; evaluation 7 days after inoculation
# [10] = test system: Cochliobolus miyabeanus; experiment: Cochliobolus test (rice) / protective; format: in vivo; details: 250ppm active compound, evaluation 4 days after inoculation
# [11] = test system: Botrytis cinerea; format: in vivo; details: 48 h, 250 ppm
# Source text: Lösungsmittel: 24,5 Gewichtsteile Aceton 24,5 Gewichtsteile Dimethylacetamid Emulgator : 1 Gewichtsteil Alkyl-Aryl-Polyglykolether Zur […] und Emulgator und verdünnt das Konzentrat mit Wasser auf die gewünschte Konzentration. Zur Prüfung auf protektive Wirksamkeit werden junge Pflanzen mit der Wirkstoffzubereitung in der angegebenen Aufwandmenge besprüht. Nach Antrocknen des Spritzbelages werden auf jedes Blatt 2 […] Botrytis cinerea […]. Die inokulierten Pflanzen werden in einer abgedunkelten Kammer bei ca. 20°C und 100% relativer Luftfeuchtigkeit aufgestellt. 2 Tage nach der Inokulation wird die Größe der Befallsflecken auf den Blä[…]. Dabei bedeutet 0% ein Wirkungsgrad, der demjenigen der Kontrolle entspricht, während ein Wirkungsgrad von 100% bedeutet, daß kein Befall beobachtet wird.
# [12] = 500ppm active compound, wheat, protective, evaluation 7-9 days after inoculation
Structure (SMILES),chromatographic logP ([1]; pH 2.7),Wirkungsgrad ([4]; 500 ppm),further results
"O=c1[nH]c(Nc2ccccc2)ncc1Br [IX-1, 2-Anilino-5-brompyrimidin-4(3H)-on]",,,chromatographic logP ([1]; pH 2.3): 1.62
C=C(C)C(=O)Nc1cccc(Nc2ncc(Cl)c(NCC(F)(F)F)n2)c1 [Verbindung 20],2.16,,
COc1ccc(Nc2ncc(Cl)c(NCC(F)(F)F)n2)cc1 [Verbindung 7],2.06,,
COC(=O)Nc1cccc(Nc2ncc(Cl)c(NCC(F)(F)F)n2)c1 [Verbindung 35],2.06,≥ 70%,IC50 [2]: 31.6 µM; IC50 [3]: 39.8 µM
COC(=O)Nc1ccc(Nc2ncc(Cl)c(NCC(F)(F)F)n2)cc1 [Verbindung 31],1.85,,
"FC(F)CNc1nc(Nc2ccccc2)ncc1Cl [Verbindung 1, 5-Chlor-N^4-(2,2-difluorethyl)-N^2-phenylpyrimidin-2,4-diamin]",,,"Wirkungsgrad ([5]; 168 h, 500 ppm): ≥ 70%; Wirkungsgrad [6]: ≥ 70%; IC50 [2]: 3.16 µM; IC50 [3]: 7.94 µM; Wirkungsgrad [7]: ≥ 70%; chromatographic logP ([1]; pH 2.3): 1.89"
CCOC(=O)Nc1cccc(Nc2ncc(Cl)c(NCC(F)(F)F)n2)c1 [Verbindung 33],2.36,,
CNC(=O)Oc1cccc(Nc2ncc(Cl)c(NCC(F)(F)F)n2)c1 [Verbindung 34],,,IC50 [2]: 10 µM; IC50 [3]: > 50.1 µM; Wirkungsgrad [8]: ≥ 80%
O=S(=O)(c1cccc(Nc2ncc(Cl)c(NCC(F)(F)F)n2)c1)N1CCCCC1 [Verbindung 26],2.58,≥ 70%,
CCN(C(C)=O)c1ccc(Nc2ncc(Cl)c(NCC(F)(F)F)n2)cc1 [Verbindung 15],2.13,≥ 70%,"Wirkungsgrad ([5]; 168 h, 500 ppm): ≥ 70%"
CC(Nc1nc(Nc2ccccc2)ncc1Cl)C(F)(F)F (stereo not shown) [Verbindung 2],,,chromatographic logP ([1]; pH 2.3): 2.87
CC(C)(CF)C(=O)Nc1cccc(Nc2ncc(Cl)c(NCC(F)(F)F)n2)c1 [Verbindung 37],2.42,≥ 70%,
CNC(=O)c1cccc(Nc2ncc(Cl)c(NCC(F)(F)F)n2)c1 [Verbindung 23],1.66,≥ 70%,
CS(=O)(=O)c1ccc(Nc2ncc(Cl)c(NCC(F)(F)F)n2)cc1 [Verbindung 10],2.21,,
O=Cc1cccc(Nc2ncc(Cl)c(NCC(F)(F)F)n2)c1 [Verbindung 46],,,"Wirkungsgrad ([5]; 500ppm active compound, tomato, protective, evaluation 7 days after inoculation): ≥ 70%; Wirkungsgrad [4, 12]: ≥ 70%; chromatographic logP ([1]; pH 7.8): 2.67"
CN(C)C(=O)c1ccc(Nc2ncc(Cl)c(NCC(F)(F)F)n2)cc1 [Verbindung 48],1.93,,"Wirkungsgrad ([5]; 168 h, 500 ppm): ≥ 70%"
CC(=O)Nc1cccc(Nc2ncc(Cl)c(NCC(F)(F)F)n2)c1 [Verbindung 19],1.66,≥ 70%,
COc1cccc(Nc2ncc(Cl)c(NCC(F)F)n2)c1 [Verbindung 39],1.96,,IC50 [2]: 3.16 µM; IC50 [3]: 10 µM
CC(=O)Nc1cc(Nc2ncc(Cl)c(NCC(F)(F)F)n2)ccc1C [Verbindung 38],1.61,≥ 70%,
"CC(CC(F)(F)F)Nc1nc(Nc2ccccc2)ncc1Br (stereo not shown) [Verbindung 42, 5-Brom-N^2-phenyl-N^4-(4,4,4-trifluorbutan-2-yl)pyrimidin-2,4-diamin]",2.4,,
CC(=O)c1ccc(Nc2ncc(Cl)c(NCC(F)(F)F)n2)cc1 [Verbindung 28],2.51,,
O=Cc1cccc(Nc2ncc(Cl)c(NCC(F)F)n2)c1 [Verbindung 47],,,"Wirkungsgrad [4, 12]: ≥ 70%; chromatographic logP ([1]; pH 7.8): 2.49"
"FC(F)(F)CNc1nc(Nc2ccccc2)ncc1Cl [Verbindung 3, 5-Chlor-N^2-phenyl-N^4-(2,2,2-trifluorethyl)pyrimidin-2,4-diamin]",,≥ 70%,Wirkungsgrad [6]: ≥ 70%; IC50 [2]: 2 µM; IC50 [3]: 12.6 µM; Wirkungsgrad [7]: ≥ 70%; chromatographic logP ([1]; pH 2.3): 2.56; chromatographic logP ([1]; pH 7.8): 3.09
CC(=O)Nc1ccc(Nc2ncc(Cl)c(NCC(F)(F)F)n2)cc1Cl [Verbindung 14],2.04,,

Structure (SMILES),chromatographic logP ([1]; pH 2.7),Wirkungsgrad ([4]; 500 ppm),further results
O=C(Nc1ccc(Nc2ncc(Cl)c(NCC(F)(F)F)n2)cc1)C(F)(F)F [Verbindung 17],2.55,,
FC(F)(F)CNc1nc(Nc2cccc(OC(F)(F)F)c2)ncc1Cl [Verbindung 9],3.72,,
CSc1ccc(Nc2ncc(Cl)c(NCC(F)(F)F)n2)cc1 [Verbindung 25],2.92,,
CC(=O)N(C)c1ccc(Nc2ncc(Cl)c(NCC(F)(F)F)n2)cc1 [Verbindung 16],1.92,≥ 70%,"Wirkungsgrad ([5]; 168 h, 500 ppm): ≥ 70%"
N#Cc1ccc(Nc2ncc(Cl)c(NCC(F)(F)F)n2)cc1 [Verbindung 8],2.77,,
CC(=O)Nc1ccc(Nc2ncc(Cl)c(NCC(F)(F)F)n2)cc1 [Verbindung 13],1.54,≥ 70%,
CN(C)S(=O)(=O)c1ccc(Nc2ncc(Cl)c(NCC(F)(F)F)n2)cc1 [Verbindung 11],2.64,,
Cc1cccc(Nc2ncc(Cl)c(NCC(F)F)n2)c1 [Verbindung 45],2.27,≥ 70%,IC50 [2]: 1.58 µM; IC50 [3]: 5.01 µM
COc1cccc(Nc2ncc(Cl)c(NCC(F)(F)F)n2)c1 [Verbindung 6],2.55,≥ 70%,IC50 [2]: 1.58 µM; IC50 [3]: 3.16 µM
COc1cc(Nc2ncc(Cl)c(NCC(F)(F)F)n2)ccc1NC(C)=O [Verbindung 5],1.75,≥ 70%,
O=C1NC(=O)C(c2ccc(Nc3ncc(Cl)c(NCC(F)(F)F)n3)cc2)N1 (stereo not shown) [Verbindung 30],1.47,,
CC1(C(=O)Nc2ccc(Nc3ncc(Cl)c(NCC(F)(F)F)n3)cc2)CC1 [Verbindung 18],2.16,,
N#CCc1cccc(Nc2ncc(Cl)c(NCC(F)F)n2)c1 [Verbindung 43],1.89,≥ 70%,"Wirkungsgrad ([5]; 168 h, 500 ppm): ≥ 70%; IC50 [2]: 1.26 µM; IC50 [3]: 6.31 µM; Wirkungsgrad [9]: ≥ 80%; Wirkungsgrad [10]: ≥ 80%; Wirkungsgrad [11]: ≥ 70%"
C=CCNC(=O)c1ccc(Nc2ncc(Cl)c(NCC(F)F)n2)cc1 [Verbindung 41],1.84,≥ 70%,
Cc1cccc(Nc2ncc(Cl)c(NCC(F)(F)F)n2)c1 [Verbindung 44],2.88,,IC50 [2]: 1.26 µM; IC50 [3]: 20 µM
CNC(=O)c1ccc(Nc2ncc(Cl)c(NCC(F)(F)F)n2)cc1 [Verbindung 22],1.66,,
CC(C)(C)C(=O)Cc1ccc(Nc2ncc(Cl)c(NCC(F)(F)F)n2)cc1 [Verbindung 27],3.17,,"Wirkungsgrad ([5]; 168 h, 500 ppm): ≥ 70%"
CC(=O)c1cccc(Nc2ncc(Cl)c(NCC(F)(F)F)n2)c1 [Verbindung 29],2.39,≥ 70%,Wirkungsgrad [6]: ≥ 70%; IC50 [2]: 10 µM; IC50 [3]: > 50.1 µM
CN(C)C(=O)c1ccc(Nc2ncc(Cl)c(NCC(F)F)n2)cc1 [Verbindung 40],1.55,≥ 70%,
CCOC(=O)Nc1ccc(Nc2ncc(Cl)c(NCC(F)(F)F)n2)cc1 [Verbindung 32],2.11,,
CSc1cccc(Nc2ncc(Cl)c(NCC(F)(F)F)n2)c1 [Verbindung 24],3.04,≥ 70%,Wirkungsgrad [6]: ≥ 70%; IC50 [2]: 31.6 µM; IC50 [3]: > 50.1 µM
N#Cc1cccc(Nc2ncc(Cl)c(NCC(F)(F)F)n2)c1 [Verbindung 4],2.67,,"Wirkungsgrad ([5]; 168 h, 500 ppm): ≥ 70%"
CSc1ccc(Nc2ncc(Cl)c(NCC(F)(F)F)n2)cc1Cl [Verbindung 12],3.55,,
CC(C)(C)C(=O)Nc1cccc(Nc2ncc(Cl)c(NCC(F)(F)F)n2)c1 [Verbindung 21],2.51,≥ 70%,
